According to patent US20200024246A1, “POGOSTONE DERIVATIVES AND METHODS OF USING THE SAME” (Hamyard Associates LLC, priority 2018, published 2020):
Values after ≈ are worked out from the molar mass of the structure shown. “Also recorded” adds a separate entry of the source. Read-outs that look alike come from different tables or passages of the source.

How the values were obtained:
[1] = system: adult female Aedes aegypti; assay: Topical combination of Formula 13 with synthetic insecticides (FIGS. 6-9); assay type: in vivo; details: for 24-hr percentage mortality: 0.2 μL acetone, Formula 13 500 μg/mL, dibrom 10 μg/mL, thiamethoxam 100 μg/mL, permethrin 2.5 μg/mL, alone or in combination
Procedure: A low-dose concentration of Formula 13 (500 μg/mL) was applied in combination with chlorfenapyr (75 μg/mL), dibrom (10 μg/mL), thiamethoxam (100 μg/mL), and permethrin (2.5 μg/mL) to the pronotum of adult female Aedes aegypti in 0.2 μL of acetone. These concentrations were chosen as they produced little-to-no mortality at 24 hours after application. Knockdown (immobilization) was recorded at 1 hour after application and mortality was recorded at 24, 48, and 72 hours after initial application. These applications were run in parallel to a topical application of a combined mixture of 500 μg/mL Formula 13 and 75 μg/mL of chlorfenpayr to the pronotum of adult female mosquitoes. For this experiment, total of 25 mosquitoes were treated within each replicate, with a minimum of 3 replicates utilized for each treatment. Synergism was defined as the higher percentage mortality in the insecticidal combination of both Formula 13 and chlorfenapyr compared to each individual component applied by itself.

adult, female mosquitoes = assay: Topical application on adult female mosquitoes (24-h mortality, 1-h knockdown); assay type: in vivo, mosquito; details: for ED50: read-out: KD50 (ug/g mosquito); for LD50: read-out: LD50 (ug/g mosquito); for insecticidal properties compared with natural pogostone, natural pyrethrins or terpenoids: words, refers to Table 1
adult house flies [2] = assay: House fly feeding assay (choice assay, FIG. 5); assay type: in vivo; details: 15% w/w in fly food, total mortality at 5 days
Source text: Formulas 13, 17, 24, 26, 10, 27, and 29 and control (acetone and boric acid) were incorporated into 2 g of house fly food (1:1 dry milk and sucrose) at rate of 15%. Specifically, approximately 20-30 adult house flies ( ) were introduced into aquaria with a French square filled with de-ionized water. Cotton dental wicks were used to draw water up and present it to flies at the top of the French square. Compounds were introduced at a concentration of (15% w/w food) into 1:1 mixtures of evaporated milk powder and sucrose. MUSCALURE™, a potent house fly attractant/pheromone used in various house fly bait products, was also added to this mixture of bait and food at a concentration of 0.5% w/w food. Two grams of food mixed with compound was provided to house flies in each assay. Another 2 g of just fly food (no compound) was provided at the other end of the assay chamber to serve as untreated source of food. This was done to assess the ability of flies to feed on the treated food source (palatability). If acetone was used as the carrier throughout the experiment, the food was carefully stirred repeatedly to ensure evaporation so that no more acetone was present in the food. Total mortality was assessed at 5 days after introducing house flies into individual mason jars with food treated with different compounds.

adult house flies [3] = assay: Topical application of pogostone derivatives with PBO or plant essential oil on house flies; assay type: in vivo, house fly; details: for LD50 (μg/g) / LD50: house flies, topical, derivative alone or in combination with PBO
Procedure: Combinations of select pogostone derivatives with select concentrations of PBO or plant essential oils was performed. […] Synergists were applied as a subsequent application directly after the application of pogostone derivatives. Concentrations of synergists (plant oils or PBO) were chosen that produced no mortality at 24 hours when applied alone.
To assess the ability of PBO to increase the toxicity of a wide variety of pogostone derivatives, PBO and the pogostone derivatives were applied in combination to the pronotum of house flies.
Finally, the potential of plant essential oils to synergize the effect of Formula 30 was assessed.

adult female mosquitoes = assay: whole plant or invertebrate; details: for LD50: read-out: 24-hour Mortality LD50 (μg/g mosquito)
Procedure: The first group of DHAA-based derivatives that were tested included Formula A2, Formula B3, Formula C3, and Formula D3. A solution of 0.5% or 1.5% of each of these compounds was applied to the mosquitoes, as described above. […] Acetone was used as a control.

[4] = system: 3-4 instar Aedes aegypti larvae; assay: Mosquito larvicide bioassay; assay type: in vivo; details: for LC50: Aedes aegypti; for larvicidal properties compared with natural pogostone or rotenone: words
Procedure: Mosquito larvicide bioassays were performed by introducing various concentrations of test compounds (pyrone derivatives and rotenone) into acetone at various concentrations. 200 uL of these solutions were added to individual cups containing 10, 3-4 instar Aedes aegypti larvae and 25 mL of DI water. 2 mg of Tetramin™ was provided to each cup as a food source. […] Ataxia was used as the indicator of larval mortality. At least 5 concentrations were used which caused between 10 and 90% mortality. LC50 values were calculated using a PROC PROBIT model in SAS 9.4.

[5] = system: Pyrethroid-resistant strain of Aedes aegypti (Puerto Rican strain); assay: Toxicity to insecticide-resistant mosquitoes (FIG. 1); details: dose response curves FIG. 1
house flies = assay: Topical application on house flies; details: for LD50 (ug/g fly): House Fly Toxicity, topical
adult flies = assay: Contact toxicity on treated filter paper; assay type: in vivo; details: filter paper treated with 1 mL in acetone; 24 hours
Procedure: Filter papers were treated with 1 mL of the disclosed compounds in acetone at varying concentrations, and the filter papers were placed in a dish. Ten adult flies were added to each dish and a sugar pad was added to each dish to ensure that any mortality could be attributed to the compound instead of starvation. Mortality was assessed at 24 hours.

[6] = Mosquito Knockdown Properties (1 hour), topical application
[7] = Mosquito Toxicity (24 hours), topical application to pronotum

## CC1(C)C(C=C(Cl)Cl)C1C(=O)OCc1cccc(Oc2ccccc2)c1 (racemic) [Permethrin, 3-phenoxybenzyl (1RS)-cis,trans-3-(2,2-dichlorovinyl)-2,2-dimethylcyclopropanecarboxylate]
[1]
  24-hr percentage mortality: 28%

## COP(=O)(OC)OC(Br)C(Cl)(Cl)Br (stereo not shown) [Dibrom]
[1]
  24-hr percentage mortality: 11%

## Cc1cc(O)c(C(=O)/C=C/C(C)C)c(=O)o1 [Formula 10]
adult, female mosquitoes; [6]
  ED50: > 1500 mg/kg
adult, female mosquitoes; [7]
  LD50: > 1500 mg/kg
Adult house flies [2]
  mortality compared with boric acid: performed better than boric acid

## CCCC(=O)c1c(O)c2ccccc2oc1=O [Formula 14]
Adult house flies [3]
  LD50 (μg/g): >6,000 μg/g
adult, female mosquitoes; topical, 1 h
  ED50: > 1500 mg/kg
adult, female mosquitoes; topical, 24 h
  LD50: 139 mg/kg
adult, female mosquitoes
  insecticidal properties compared with natural pogostone, natural pyrethrins or terpenoids: possessed better insecticidal properties than natural pogostone
Adult female mosquitoes; topical
  1-hour Knockdown EC50 (μg/g mosquito): >1500 μg/g mosquito
Adult female mosquitoes; topical, 24 h
  LD50: 139 mg/kg
[4]; larval mortality at 24 hours, in 25 mL DI water, read-out: LC50
  LC50: 0.9 mg/L
[4]
  larvicidal properties compared with natural pogostone or rotenone: possessed better larvicidal properties than natural pogostone; also recorded: possessed better larvicidal properties than rotenone; also recorded: performed as well as the rotenone
[5]
  insecticidal capacity compared with natural pyrethrins: outperformed natural pyrethrins
House flies
  LD50 (ug/g fly): >6,000 ug/g fly

## CC(C)C(=O)c1c(O)c2ccccc2oc1=O [Formula 19]
Adult house flies [3]
  LD50: 1495 µg/g
adult, female mosquitoes; topical, 1 h
  ED50: 384 mg/kg
adult, female mosquitoes; topical, 24 h
  LD50: 24.7 mg/kg
adult, female mosquitoes
  insecticidal properties compared with natural pogostone, natural pyrethrins or terpenoids: possessed better insecticidal properties at least as well as natural pyrethrins
Adult female mosquitoes; topical
  1-hour Knockdown EC50 (μg/g mosquito): 384.5 μg/g mosquito
Adult female mosquitoes; topical, 24 h
  LD50: 25 mg/kg
House flies
  LD50 (ug/g fly): 1495 ug/g fly

## O=C(CCc1ccccc1)c1c(O)c2ccccc2oc1=O [Formula 24]
adult, female mosquitoes; topical, 1 h
  ED50: > 1500 mg/kg
adult, female mosquitoes; topical, 24 h
  LD50: > 1500 mg/kg
Adult house flies [2]
  mortality compared with boric acid: performed similarly to boric acid

## CCCCCCCCCCCC(=O)c1c(O)c2ccccc2oc1=O [Formula 26]
adult, female mosquitoes; topical, 1 h
  ED50: > 1500 mg/kg
adult, female mosquitoes; topical, 24 h
  LD50: > 1500 mg/kg
Adult house flies [2]
  mortality compared with boric acid: performed similarly to boric acid

## CCOC(=O)/C(C(C)=O)=C(/O)c1ccccc1 [Formula 28]
adult, female mosquitoes; topical, 1 h
  ED50: > 1500 mg/kg
adult, female mosquitoes; topical, 24 h
  LD50: > 1500 mg/kg
[4]; 24 h
  LC50: 9.16 mg/L
[4]
  larvicidal properties compared with natural pogostone or rotenone: possessed better larvicidal properties than natural pogostone

## O=C(c1c(O)c2ccccc2oc1=O)C1CC1 [Formula 29]
Adult house flies [3]
  LD50: 1761 µg/g
adult, female mosquitoes; [6]
  ED50: 613 mg/kg
adult, female mosquitoes; [7]
  LD50: 47.7 mg/kg
adult, female mosquitoes
  insecticidal properties compared with natural pogostone, natural pyrethrins or terpenoids: possessed better insecticidal properties than natural pogostone
Adult house flies [2]
  mortality compared with boric acid: performed better than boric acid
House flies
  LD50 (ug/g fly): 1761 ug/g fly

## CC(C)C(=O)c1c(O)c2cc(F)ccc2oc1=O [Formula 30]
Adult house flies [3]; 1% CWT, dose-response curves FIG. 11
  toxicity of Formula 30 in combination with cedarwood (Texas type) oil (CWT): significant increase in toxicity; also recorded: shifting the dose-response curve to the left
Adult house flies [3]; 1% PBO, dose-response curves FIG. 11
  toxicity of Formula 30 in combination with PBO: significant increase in toxicity; also recorded: shifting the dose-response curve to the left
Adult house flies [3]
  LD50: 645 µg/g
adult, female mosquitoes; [6]
  ED50: > 1500 mg/kg
adult, female mosquitoes; [7]
  LD50: 45.6 mg/kg
adult, female mosquitoes
  insecticidal properties compared with natural pogostone, natural pyrethrins or terpenoids: possessed better insecticidal properties than natural pogostone
House flies
  LD50 (ug/g fly): 645 ug/g fly
House flies; words
  toxicity to house flies: extremely effective at killing house flies

## O=C(c1c(O)c2ccccc2oc1=O)C(Cl)Cl [Formula 31]
Adult house flies [3]
  LD50 (μg/g): >6,000 μg/g
adult, female mosquitoes; [6]
  ED50: > 1500 mg/kg
adult, female mosquitoes; [7]
  LD50: > 1500 mg/kg
House flies
  LD50 (ug/g fly): >6,000 ug/g fly

## C=C(C)C(O)CC(=O)c1c(O)cc(C)oc1=O (stereo not shown) [Formula C19]
Adult flies
  percent mortality, 0.10% Concentration: 0%
  percent mortality, 0.25% Concentration: 0%
  percent mortality, 0.50% Concentration: 0%
Adult female mosquitoes; Culicidae, topical, 1 h, read-out: Knockdown at 0.5%
  pest or weed control at 0.5 %: 83%
Adult female mosquitoes; Culicidae, topical, 1 h, read-out: Knockdown at 1.5%
  pest or weed control at 1.5 %: 83%
Adult female mosquitoes; Culicidae, topical, 24 h, read-out: Mortality at 0.5%
  mortality at 0.5 %: 83%
Adult female mosquitoes; Culicidae, topical, 24 h, read-out: Mortality at 1.5%
  mortality at 1.5 %: 77%
Adult female mosquitoes; words
  ranking in knockdown and mortality screenings: appear to be the most potent insecticidal compounds

## C=C(C)[C@H]1Cc2c(ccc3c2O[C@@H]2COc4cc(OC)c(OC)cc4[C@@H]2C3=O)O1 [Rotenone, reference compound]
[4]; 24 h
  LC50: 0.35 mg/L (≈ 0.887 µM)

## CN1COCN(Cc2cnc(Cl)s2)C1=N[N+](=O)[O-] [Thiamethoxam, 3-((2-chloro-5-thiazolyl)methyl)-5-methyl-4-nitroiminotetrahydro-1,3,5-oxadiazine]
[1]
  24-hr percentage mortality: 25.6%

## CCOCn1c(-c2ccc(Cl)cc2)c(C#N)c(Br)c1C(F)(F)F [chlorfenapyr, 4-bromo-2-(4-chlorophenyl)-1-ethoxymethyl-5-trifluoromethylpyrrol-3-carbonitrile]
[1]; chlorfenapyr 75 ug/mL, Formula 13 500 ug/mL, alone or combined, words
  percentage mortality at 24 hour: very low mortality
